Assay results reported in patent US20250215029A1 (Recludix Pharma, Inc., priority 2022, published 2025).
Where two headings read alike, the source gives them in different places.

Tests used:
pY705-STAT3 in PBMC = target: T1, pY705-STAT3 in PBMC (Homo sapiens, UniProt P40763); assay: MSD-pSTAT-PBMC Assay (pSTAT3, IL-6 stimulated); type: cell-based; details: PBMC, compound 3 hrs, then 10 ng/mL IL-6 for 10 min
T1 construct: Cryopreserved Peripheral Blood Mononuclear Cells (PBMC) are from AllCells; host or cells: cryopreserved PBMC
T1 sequence (P40763 whole entry): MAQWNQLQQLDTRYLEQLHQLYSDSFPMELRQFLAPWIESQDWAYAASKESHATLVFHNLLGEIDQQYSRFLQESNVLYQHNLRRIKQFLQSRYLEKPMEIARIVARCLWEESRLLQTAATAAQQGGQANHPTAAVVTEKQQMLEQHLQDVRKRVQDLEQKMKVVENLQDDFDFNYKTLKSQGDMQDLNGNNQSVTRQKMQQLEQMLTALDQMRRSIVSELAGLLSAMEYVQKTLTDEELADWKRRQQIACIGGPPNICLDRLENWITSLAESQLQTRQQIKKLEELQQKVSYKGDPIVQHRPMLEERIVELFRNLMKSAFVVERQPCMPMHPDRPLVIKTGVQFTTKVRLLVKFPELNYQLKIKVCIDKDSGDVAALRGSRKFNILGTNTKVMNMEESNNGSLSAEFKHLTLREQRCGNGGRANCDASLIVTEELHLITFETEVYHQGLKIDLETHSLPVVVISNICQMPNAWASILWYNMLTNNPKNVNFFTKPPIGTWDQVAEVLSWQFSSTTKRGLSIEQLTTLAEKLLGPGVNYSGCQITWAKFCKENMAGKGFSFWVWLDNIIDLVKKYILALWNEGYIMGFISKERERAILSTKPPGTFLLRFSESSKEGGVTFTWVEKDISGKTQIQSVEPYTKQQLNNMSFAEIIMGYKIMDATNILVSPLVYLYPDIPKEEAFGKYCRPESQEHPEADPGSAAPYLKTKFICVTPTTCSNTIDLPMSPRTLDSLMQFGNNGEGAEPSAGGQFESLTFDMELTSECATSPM
Summary of the method: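 PBMC (human, cryopreserved, overnight recovery) + cpd 3 hrs → IL-6 10 ng/mL (STAT3) or IL-4 1 ng/mL (STAT6) ×10 min → lysis with protease/phosphatase inhibitors → MSD capture/phospho detection. IC50, variable slope, DMSO-normalized.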

pY641-STAT6 in PBMC = target: T2, pY641-STAT6 in PBMC (Homo sapiens, UniProt P42226); assay: MSD-pSTAT-PBMC Assay (pSTAT6, IL-4 stimulated); type: cell-based; details: compound 3 hrs, then 1 ng/mL IL-4 for 10 min
T2 construct: Cryopreserved Peripheral Blood Mononuclear Cells (PBMC) are from AllCells; host or cells: cryopreserved PBMC
T2 sequence (P42226 1-847): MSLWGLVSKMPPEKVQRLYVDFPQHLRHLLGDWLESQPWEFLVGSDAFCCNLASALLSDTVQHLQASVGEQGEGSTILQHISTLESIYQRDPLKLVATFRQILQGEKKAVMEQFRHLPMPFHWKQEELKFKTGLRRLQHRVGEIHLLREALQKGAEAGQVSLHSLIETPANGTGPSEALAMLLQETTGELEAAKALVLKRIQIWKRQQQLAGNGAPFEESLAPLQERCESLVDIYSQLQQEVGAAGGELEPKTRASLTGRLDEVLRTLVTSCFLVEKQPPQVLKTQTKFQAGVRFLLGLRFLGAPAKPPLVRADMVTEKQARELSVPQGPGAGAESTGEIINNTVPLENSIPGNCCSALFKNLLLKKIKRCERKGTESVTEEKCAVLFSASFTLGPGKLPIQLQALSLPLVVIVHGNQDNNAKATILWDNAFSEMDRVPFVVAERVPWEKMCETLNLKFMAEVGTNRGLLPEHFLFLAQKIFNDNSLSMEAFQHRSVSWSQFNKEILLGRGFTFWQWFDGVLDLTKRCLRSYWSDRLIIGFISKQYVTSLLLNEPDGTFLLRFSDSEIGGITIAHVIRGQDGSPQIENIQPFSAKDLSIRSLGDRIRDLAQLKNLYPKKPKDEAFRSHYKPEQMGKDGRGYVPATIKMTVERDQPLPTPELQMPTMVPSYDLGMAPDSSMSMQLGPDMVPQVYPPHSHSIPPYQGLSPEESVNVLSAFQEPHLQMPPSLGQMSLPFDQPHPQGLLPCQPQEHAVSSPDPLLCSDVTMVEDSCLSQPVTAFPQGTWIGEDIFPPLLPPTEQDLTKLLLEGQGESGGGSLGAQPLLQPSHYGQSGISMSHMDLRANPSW
Summary of the method: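 Thawed human PBMC rested overnight in IMDM/10% FBS, then got compound for 3 hrs before a 10 min cytokine pulse: 1 ng/mL IL-4 for pSTAT6, 10 ng/mL IL-6 for pSTAT3. Lysates went to MSD sandwich capture on total STAT6 or STAT3 with phospho-specific detection. IC50 came from background-subtracted, DMSO-normalized signal.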

[1] = PBMC, Table 1114, read-out: pSTAT6

CC(C)(C)C(=O)OCOP(=O)(OCOC(=O)C(C)(C)C)C(F)(F)c1ccc2sc(C(=O)N[C@@]3(C)CCCC[C@H]4CC[C@@H](C(=O)N5CC(c6ccccn6)C5)N4C3=O)cc2c1 [Compound 150, (((difluoro(2-(((3S,6S,10aS)-6-methyl-5-oxo-3-(3-(pyridin-2-yl)azetidine-1-carbonyl)decahydropyrrolo [1,2-a]azocin-6-yl)carbamoyl)benzo[b]thiophen-5-yl)methyl)phosphoryl)bis (oxy))bis (methylene) bis(2,2-dimethyl-propanoate)]
IC50 (pY705-STAT3 in PBMC; Table 1114, read-out: pSTAT3): 100 to 1000 nM | IC50 (pY641-STAT6 in PBMC; [1]): > 3000 nM

CCCOC(=O)[C@H](C)NP(=O)(Cc1ccc2sc(C(=O)N[C@H]3C[C@@H](C)C[C@H]4CC[C@@H](C(=O)N5CC(c6cnccc6C)C5)N4C3=O)cc2c1)Oc1ccccc1 (stereo partly drawn) [Compound 284, propyl (((2-(((3S,6S,8R,9aR)-8-methyl-3-(3-(4-methylpyridin-3-yl)azetidine-1-carbonyl)-5-oxooctahydro-1H-pyrrolo[1,2-a]azepin-6-yl)carbamoyl)benzo [b]thiophen-5-yl)methyl)(phenoxy)phosphoryl)-L-alaninate]
IC50 (pY705-STAT3 in PBMC; Table 115, read-out: STAT3): < 100 nM | IC50 (pY641-STAT6 in PBMC; STAT6, PBMC, Table 115): > 3000 nM

COc1ccncc1C1CN(C(=O)[C@@H]2CC[C@@H]3CCC[C@H](NC(=O)c4cc5cc([C@@H](F)[P@](=O)(N[C@@H](C)C(=O)OCc6ccccc6)Oc6ccccc6)ccc5s4)C(=O)N32)C1 (single isomer, unassigned) [Compound 1055]
IC50 (pY705-STAT3 in PBMC; Table 115, read-out: STAT3): < 100 nM | IC50 (pY641-STAT6 in PBMC; STAT6, PBMC, Table 115): > 3000 nM

CCCOC(=O)[C@H](C)NP(=O)(Oc1ccccc1)C(F)c1ccc2sc(C(=O)N[C@H]3CCCC[C@H]4CC[C@@H](C(=O)N5C[C@@H](c6cccc(OC)c6)[C@H](C#N)C56CC6)N4C3=O)cc2c1 (single isomer, unassigned) [Compound 326]
IC50 (pY705-STAT3 in PBMC; Table 115, read-out: STAT3): > 3000 nM | IC50 (pY641-STAT6 in PBMC; STAT6, PBMC, Table 115): < 100 nM

CCCC(=O)SCCOP(=O)(OCCSC(=O)CCC)C(F)(F)c1ccc2sc(C(=O)N[C@H]3CCCC[C@H]4CC[C@@H](C(=O)N(C)c5ccc6nnccc6c5)N4C3=O)cc2c1 [Compound 131, S,S′-(((((2-(((3S,6S,10aS)-3-(cinnolin-6-yl(methyl)carbamoyl)-5-oxodecahydro-pyrrolo[1,2-a]azocin-6-yl)carbamoyl)benzo[b]thiophen-5-yl)difluoromethyl)phosphoryl)bis (oxy))bis(ethane-2,1-diyl)) dibutanethioate]
IC50 (pY705-STAT3 in PBMC; Table 1114, read-out: pSTAT3): 100 to 1000 nM | IC50 (pY641-STAT6 in PBMC; [1]): < 100 nM

CCCOC(=O)[C@H](C)NP(=O)(Cc1ccc2ccc(C(=O)N[C@H]3CCCC[C@H]4CC[C@@H](C(=O)N5C[C@@H](c6cc[nH]c(=O)c6)CC56CC6)N4C3=O)cc2c1)Oc1ccccc1 (stereo partly drawn) [Compound 409, propyl (((7-(((3S,6S,10aS)-5-oxo-3-((R)-6-(2-oxo-1,2-dihydropyridin-4-yl)-4-azaspiro[2.4]heptane-4-carbonyl)decahydropyrrolo[1,2-a]azocin-6-yl)carbamoyl)naphthalen-2-yl)methyl)(phenoxy)phosphoryl)-L-alaninate]
IC50 (pY705-STAT3 in PBMC; Table 115, read-out: STAT3): > 3000 nM | IC50 (pY641-STAT6 in PBMC; STAT6, PBMC, Table 115): 1000 to 3000 nM

CC(C)(C)C(=O)SCCOP(=O)(Cc1ccc2sc(C(=O)N[C@H]3CCCC[C@H]4CC[C@@H](C(=O)N5C[C@@H](C#N)[C@H](c6ccccc6)C5)N4C3=O)cc2c1)OCCSC(=O)C(C)(C)C (single isomer, unassigned) [Compound 149, S,S′-(((((2-(((3S,6S,10aS)-3-((3S,4R or 3R,4S)-3-cyano-4-phenylpyrrolidine-1-carbonyl)-5-oxodecahydro-pyrrolo[1,2-a]azocin-6-yl)carbamoyl)benzo[b]thiophen-5-yl)methyl)phosphoryl)bis (oxy))bis(ethane-2,1-diyl))bis(2,2-dimethyl-propanethioate)]
IC50 (pY705-STAT3 in PBMC; Table 1114, read-out: pSTAT3): > 3000 nM | IC50 (pY641-STAT6 in PBMC; [1]): > 3000 nM

S-(2- (((difluoro(2- (((3S,6S,9aS)-3-(3-((S- methylsulfonimidoyl) methyl)azetidine-1- carbonyl)-5- oxooctahydro-1H- pyrrolo[1,2-a]azepin-6- yl)carbamoyl)benzo[b] thiophen-5-yl)methyl) (((3-methylbutanoyl) thio)methoxy) phosphoryl)oxy)ethyl) 3-methylbutane thioate [Compound 178]
IC50 (pY705-STAT3 in PBMC; Table 1114, read-out: pSTAT3): 100 to 1000 nM | IC50 (pY641-STAT6 in PBMC; [1]): > 3000 nM
